From patent EP1733731A1, “New uses of Glycerol derivatives in particular in cosmetics” (AGRO INDUSTRIE RECHERCHES ET DEVELOPPEMENTS (A.R.D.), priority 2005, dated 2006)

Experiments:
[1] = tested on: TIMP-1; assay: TIMP-1 secretion by dermal fibroblasts (reverse zymography); type: cell-based
Excerpt: Les effets de ces composés et fractions ont été étudiés sur la sécrétion de TIMP-1 par des fibroblastes dermiques en culture. L'analyse de la quantité de TIMP-1 produite est effectuée par une technique de zymographie inverse (Biotechniques. 2005 Jan;38(1):73-83. Zymographic techniques for the analysis of matrix metalloproteinases and their inhibitors. Snoek-van Beurden PA, Von den Hoff JW). Les résultats présentés sont exprimés en pourcentage par rapport au témoin sans effecteur.

[2] = molecular target: T1, plasmine humaine (Homo sapiens, UniProt P00747); assay: activation of proMMP-3 by plasmin in vitro (western blot); type: biochemical; details: 25 µg/mL; 65 nM plasmin, 100 nM proMMP-3; Figure 1A-4
T1 construct: connus pour interagir avec la plasmine via son domaine kringle V; testé in vitro sur l'activité amidolytique de la plasmine à l'aide d'un substrat synthétique (S-2251, Chromogénix)
T1 sequence (P00747 97-580 limits assumed): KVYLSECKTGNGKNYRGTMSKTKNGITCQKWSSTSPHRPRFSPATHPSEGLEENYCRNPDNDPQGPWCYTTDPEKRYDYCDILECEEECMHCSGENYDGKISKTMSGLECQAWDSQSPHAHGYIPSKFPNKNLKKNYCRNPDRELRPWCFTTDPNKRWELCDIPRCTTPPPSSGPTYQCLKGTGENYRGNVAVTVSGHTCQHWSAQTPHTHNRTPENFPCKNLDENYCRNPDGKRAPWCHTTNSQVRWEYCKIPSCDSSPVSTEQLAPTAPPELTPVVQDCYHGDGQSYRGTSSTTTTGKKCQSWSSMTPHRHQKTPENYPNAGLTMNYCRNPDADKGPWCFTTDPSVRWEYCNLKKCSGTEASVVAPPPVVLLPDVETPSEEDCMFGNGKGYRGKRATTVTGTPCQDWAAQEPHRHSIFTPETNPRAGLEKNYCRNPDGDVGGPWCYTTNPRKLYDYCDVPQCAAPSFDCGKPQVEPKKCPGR
T1 sequence (P00747 581-810 limits assumed): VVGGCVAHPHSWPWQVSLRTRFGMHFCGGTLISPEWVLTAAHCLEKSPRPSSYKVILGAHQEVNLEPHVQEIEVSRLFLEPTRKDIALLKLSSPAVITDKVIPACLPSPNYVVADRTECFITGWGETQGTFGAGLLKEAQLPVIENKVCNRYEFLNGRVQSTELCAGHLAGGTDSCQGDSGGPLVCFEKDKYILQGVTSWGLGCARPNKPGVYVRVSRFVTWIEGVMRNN
Method: • La Figure 1 représente la modulation de l'activation des proMMP-3 (Figures 1A et 1B) et proMMP-1 (Figure 1C) in vitro comme en culture par des extraits glycolipidiques du gluten de blé. • Figure 1A : 100 nM de proMMP-3 (Figure 1A-1) sont incubés avec 65 nM de plasmine en absence (Figure 1A-2) ou en présence de glycolipides (Figure 1A-3 et 4), à la concentration de 50µg/mL pour M1-Sucres (Figure 1A-3) et 25 µg/mL pour ED 23-11 (Figure 1A-4). • Figure 1B : des fibroblastes dermiques sont ensemencés en plaque 24 puits à raison de […] cellules par puits jusque confluence. Après une mise au repos de 18 heures, les cellules sont incubées en présence (Figure 1B-2, 3 et 4) ou non (Figure 1B-1) de 2,5 µg/mL de plasmine ainsi que des glycolipides M1(-Sucres) (Figure 1B-3) et ED 23-11 (Figure 1B-4) aux mêmes concentrations que précédemment. • Figure 1C : des fibroblastes dermiques sont ensemencés en plaque 24 puits à raison de […] cellules par puits jusque confluence. Après une mise au repos de 18 heures, les cellules sont incubées en présence (Figure 1C-2, 3 et 4) ou non (Figure 1C-1) de 2,5 µg/mL de plasmine ainsi que des glycolipides M1(-Sucres) (Figure 1C-3) et ED 23-11 (Figure 1C-4) aux mêmes concentrations que précédemment. Dans l'ensemble des figures 1A, 1B et 1C, la réaction est arrêtée aux temps indiqués par addition de 0,3 mg/ml d'aprotinine. […]

[3] = molecular target: T1, plasmine humaine; assay: amidolytic activity of plasmin on synthetic substrate S-2251; type: biochemical
Method: L'effet de ces différentes fractions et produits purs a donc été testé in vitro sur l'activité amidolytique de la plasmine à l'aide d'un substrat synthétique (S-2251, Chromogénix).
Les fractions ou composés purs issus de l'extraction sont solubilisés avant utilisation dans du diméthylsulfoxyde (DMSO) à une concentration de stockage de 20 mg/mL. La conservation est effectuée à -80°C. 12 nM de plasmine humaine sont pré-incubés en absence et en présence de concentrations croissantes (0 à 200 µg/mL) des différentes fractions et produits dans un tampon Tris-HCl 100 mM pH 7,5. La réaction est déclenchée par addition de 0,3 mM de S-2251. L'hydrolyse du S-2251 est suivie par mesure de l'absorbance du para-nitroaniline à 405 nm. La courbe représentant les variations d'absorbance en fonction du temps est tracée et la vitesse initiale de la réaction est déterminée par calcul de la pente de la tangente à l'origine. Le rapport Vi/Vo est calculé, où Vo représente la vitesse initiale en absence d'effecteur et Vi cette vitesse en présence d'un effecteur, et la courbe Vi/Vo en fonction de la concentration en en glycolipides est tracée.

activation de la proMMP-3 par la plasmine [2]: inhibition
Plasmine (Vi/Vo) ([3]; 25 µg/mL, 12 nM plasmin, 0,3 mM S-2251): 2,11 ± 0,16
Action sur l'activité de la plasmme (Vi/V0) à isoconcentration ([3]; at isoconcentration): 8,44
Augmentation d'activité ([3]; plasmin amidolytic activity, increase from one fractionation step to the next): 2,36
Compound: CCCCC/C=C\C/C=C\CCCCCCCCOC[C@H](CO[C@@H]1O[C@H](COC(=O)CCCCCCCCCCCCCCC)[C@H](O)[C@H](O)[C@H]1O)OCCCCCCCC/C=C\C/C=C\CCCCC [ED23-11, 1,2-di-O-linoléyl-3-O-[6'-O-palmitoyl-β-D-galactopyranosyl]-sn-glycérol]
sécrétion de TIMP-1, pourcentage par rapport au témoin sans effecteur ([1]; 5 ng/mL): 102%
sécrétion de TIMP-1, pourcentage par rapport au témoin sans effecteur ([1]; 25 ng/mL): 104%
sécrétion de TIMP-1, pourcentage par rapport au témoin sans effecteur ([1]; 50 ng/mL): 98%
sécrétion de TIMP-1, pourcentage par rapport au témoin sans effecteur ([1]; 100 ng/mL): 101%
sécrétion de TIMP-1, pourcentage par rapport au témoin sans effecteur ([1]; 200 ng/mL): 106%
surexpression du TIMP-1 ([1]; over the tested concentration range, result in words): pas
